The target in experiment [1] is T1, B-Raf (V600E) kinase (Homo sapiens, UniProt P15056, V600E).
T1 construct: B-Raf (V600E) residues 416-766 with a; GST (N); purchased SignalChem
Nature of the experiment: Biochemical assay for B-Raf (V600E).1 (coupled pyruvate kinase/lactate dehydrogenase). Particulars: read-out: BRAF V600E.1 IC50. In short, it runs like this: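 IC50 came from four-parameter sigmoidal fits of percent inhibition, using reaction rates over 3-4 h. Continuous A340 reading (6 h, 30 °C) of a pyruvate kinase/lactate dehydrogenase-coupled reaction: B-Raf V600E 0.03 nM, MEK 30.1 nM, ATP 1 mM, Tris pH 7.5, 1% DMSO.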

Experiment [2] has as its system H2405 cells. Put plainly: H2405 cell proliferation assay (1), resazurin, 96-well. Particulars: Homo sapiens, NCI-H2405, inhibition of cell proliferation. The class given is cell-based. As for the experimental part: H2405 Cell Proliferation Assay (1)
(§1) H2405 cells (catalog #CRL-5944) are obtained from the American Type Culture Collect (ATTC, Manassas, VA). Briefly, cells were grown in RPMI 1640 supplemented with 5% characterized fetal bovine serum (Invitrogen, Carlsbad, CA) and 1% Penicillin/Streptomycin/L-Glutamine at 37° C., 5% CO2, and 95% humidity. Cells are expanded until reaching 70-95% confluency at which point they are subcultured or harvested for assay use. A serial dilution of test compound is dispensed into a 96-well black clear bottom plate in triplicate. Three thousand cells are added per well in 200 μL complete growth medium in the 96-well plate. Plates are incubated for 67-72 hours at 37° C., 5% CO2, and 95% humidity. At the end of the incubation, 40 μL of a 440 μM solution of resazurin (Sigma, St. Louis, MO) in PBS is added to each well of the plate and plates are incubated for an additional 5-6 hours at 37° C., 5% CO2, and 95% humidity. Plates are read on a Synergy2 or equivalent reader (Biotek, Winooski VT) using an excitation of 540 nm and an emission of 600 nm. Data is analyzed using Prism software (GraphPad, San Diego, CA) to calculate IC50 values.

Experiment [3] relates to Miapaca-2 cells. Nature of the experiment: MiaPaca-2 cell proliferation assay (1), resazurin, 96-well. The class given is cell-based. Particulars: Homo sapiens, MIA PaCa-2, inhibition of cell proliferation. As for the experimental part:
MiaPaca-2 Cell Proliferation Assay (1)
as §1, with “Miapaca-2 cells” for “H2405 cells”, “(catalog #CRL-1420)” for “(catalog #CRL-5944)”, “in DMEM” for “in RPMI 1640”, “with 10%” for “with 5%”, “Carlsbad, CA), 2.5% New Zealand sourced horse serum” for “Carlsbad, CA)”

T1 sequence (P15056 416-766 V600E): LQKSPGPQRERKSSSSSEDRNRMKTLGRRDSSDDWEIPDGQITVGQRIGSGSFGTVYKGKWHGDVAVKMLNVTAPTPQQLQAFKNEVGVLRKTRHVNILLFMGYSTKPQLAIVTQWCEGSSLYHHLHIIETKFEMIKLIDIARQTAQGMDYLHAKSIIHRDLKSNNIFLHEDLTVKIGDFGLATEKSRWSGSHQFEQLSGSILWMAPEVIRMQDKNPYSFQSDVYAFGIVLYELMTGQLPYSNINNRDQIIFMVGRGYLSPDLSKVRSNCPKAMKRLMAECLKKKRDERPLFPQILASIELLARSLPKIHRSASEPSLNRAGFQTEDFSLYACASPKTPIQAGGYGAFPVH

Regarding `COC(=O)Nc1cc(-c2cc(-c3cc(NC(=O)NCCC4COC4)c(F)cc3C)cc(OCCO)n2)ccn1` [Example 155], the results for the IC50 in experiment [1] and in experiment [2] were not above 0.1 µM and 1 to 10 µM, respectively.

Turning to `COC[C@H]1CCN(C(=O)Nc2cc(-c3cc(-c4ccnc(NC(=O)OC)c4)cnn3)c(C)cc2F)C1` [Example 148], the 50% inhibitory concentration (IC50) was not above 0.1 µM in experiment [1], 1 to 10 µM in experiment [3] and 1 to 10 µM in experiment [2].

In the case of `COC(C)(C)CCNC(=O)Nc1cc(-c2cc(-c3ccnc(NC(=O)C4CC4)c3)cnn2)c(C)cc1F` [Example 142], the IC50 in experiment [1] is not above 0.1 µM; in experiment [3], 1 to 10 µM; in experiment [2], 0.5 to 1 µM.

In the case of `Cc1ncc(NC(=O)NCCC2(C)CC2)cc1-c1cc(OCCO)nc(-c2ccnc(NC(=O)C3CC3)c2)n1` [Example 133], the 50% inhibitory concentration (IC50) in experiment [1] is not above 0.1 µM; in experiment [3], 1 to 10 µM; in experiment [2], 0.5 to 1 µM.

In the case of `COC(=O)Nc1cc(-c2nccc(-c3cc(NC(=O)NCCC4(C)CC4)cnc3C)n2)ccn1` [Example 135], the results for the IC50 in experiment [1] and in experiment [2] were not above 0.1 µM and 1 to 10 µM, respectively.

On to `Cc1ncc(NC(=O)NC2CC(C)(C)C2)cc1-c1cc(OCCO)nc(-c2ccnc(NC(=O)C3CC3)c2)c1` [Example 126], for which the IC50 in experiment [1] is not above 0.1 µM; in experiment [2], 0.5 to 1 µM.

Regarding `COC(=O)Nc1cc(-c2cnnc(-c3cc(NC(=O)NCCC(C)(C)OC)cnc3C)c2)ccn1` [Example 153], the IC50 was not above 0.1 µM in experiment [1] and 1 to 10 µM in experiment [2].

Turning to `CNC(=O)c1cc(-c2cnnc(-c3cc(NC(=O)NCCC(C)(C)F)c(F)cc3C)c2)ccn1` [Example 132], the IC50 was not above 0.1 µM in experiment [1], 1 to 10 µM in experiment [3] and 1 to 10 µM in experiment [2].

In the case of `Cc1ncc(NC(=O)NCCN2CCC2)cc1-c1cc(OCCO)nc(-c2ccnc(NC(=O)C3CC3)c2)c1` [Example 172], the values for the IC50 in experiment [1] and in experiment [2] were 0.1 to 0.5 µM and 1 to 10 µM, respectively.

`Cc1ncc(NC(=O)NCCC2(C)CC2)cc1-c1ccnc(-c2ccnc(NC(=O)C3(C#N)CC3)c2)c1` [Example 169]: the IC50 was not above 0.1 µM in experiment [1] and 0.1 to 0.5 µM in experiment [2].

Turning to `COC[C@@H]1CCN(C(=O)Nc2cnc(C)c(-c3cc(OCCO)nc(-c4ccnc(NC(=O)OC)c4)c3)c2)C1` [Example 160], the IC50 in experiment [1] was not above 0.1 µM; in experiment [2] it was 1 to 10 µM.

Consider `COC(=O)Nc1nccc(-c2cc(OCCO)cc(-c3cc(NC(=O)NCCC4(C)CC4)c(F)cc3C)c2)n1` [Example 122], for which the results for the IC50 in experiment [1], in experiment [3] and in experiment [2] were not above 0.1 µM, 1 to 10 µM and 0.5 to 1 µM, respectively.

Consider `COC(=O)Nc1cc(-c2cnnc(-c3cc(NC(=O)NCCC(C)(C)F)c(F)cc3C)c2)ccn1` [Example 141], for which the IC50 is not above 0.1 µM in experiment [1], 1 to 10 µM in experiment [3] and 1 to 10 µM in experiment [2].

On to `Cc1cc(F)c(NC(=O)NCCC(C)(C)F)cc1-c1ccnc(-c2ccnc(NC(=O)C3CC3)c2)c1` [Example 159], for which the IC50 in experiment [1] was not above 0.1 µM; in experiment [2], 0.1 to 0.5 µM.

Take `CNC(=O)c1cc(-c2cnnc(-c3cc(NC(=O)NCCC(C)(C)OC)cnc3C)c2)ccn1` [Example 154]: the IC50 in experiment [1] is not above 0.1 µM; in experiment [2], 1 to 10 µM.

On to `Cc1ncc(NC(=O)NCCC2(C)CC2)cc1-c1ccnc(-c2ccnc(NC(=O)C3CC3)c2)c1` [Example 118], for which the results for the IC50 in experiment [1], in experiment [3] and in experiment [2] were not above 0.1 µM, 1 to 10 µM and 0.5 to 1 µM, respectively.

`COC(=O)Nc1cc(-c2cc(-c3cc(NC(=O)NC[C@H]4CCO4)c(F)cc3C)cc(OCCO)n2)ccn1` [Example 96]: the results for the IC50 in experiment [1] and in experiment [2] were not above 0.1 µM and 1 to 10 µM, respectively.

Regarding `Cc1cc(F)c(NC(=O)NCCC2(C)CC2)cc1-c1cnnc(-c2ccnc(NC(=O)C3CC3)c2)c1` [Example 168], the IC50 in experiment [1] and in experiment [2] was not above 0.1 µM throughout.

On to `COC(=O)Nc1cc(-c2cc(-c3cc(NC(=O)N4CCC(C)(C)CC4)cnc3C)cc(OCCO)n2)ccn1` [Example 166], for which the IC50 in experiment [1] was not above 0.1 µM; in experiment [2] it was 0.5 to 1 µM.

For `COC(=O)Nc1cc(-c2ccnc(-c3cc(NC(=O)NCCC(C)(C)OC)c(F)cc3C)n2)ccn1` [Example 171], the results for the half-inhibitory concentration (IC50) in experiment [1] and in experiment [2] were not above 0.1 µM and 1 to 10 µM, respectively.

Consider `CNC(=O)c1cc(-c2cc(-c3cc(NC(=O)NCCC4(C)CC4)c(F)cc3C)cc(OCCO)n2)ccn1` [Example 164], for which the values for the IC50 in experiment [1] and in experiment [2] were not above 0.1 µM and 0.1 to 0.5 µM, respectively.

With `Cc1ncc(NC(=O)NCCC(C)(C)F)cc1-c1nccc(-c2ccnc(NC(=O)C3CC3)c2)n1` [Example 130], the concentration for half-maximal inhibition (IC50) in experiment [1] is not above 0.1 µM; in experiment [2], 1 to 10 µM.

For `Cc1ccc(NC(=O)Nc2cccc(C(F)(F)F)c2)cc1-c1cc(OCCO)nc(N2CCOCC2)c1` [Example 3, 1-(3-(2-(2-hydroxyethoxy)-6-morpholinopyridin-4-yl)-4-methylphenyl)-3-(3-(trifluoromethyl)phenyl)urea], the IC50 was not above 0.1 µM in experiment [1] and 1 to 10 µM in experiment [3].

On to `CCC(C)CCNC(=O)Nc1cnc(C)c(-c2ccnc(-c3ccnc(NC(=O)C4CC4)c3)c2)c1` (stereo not shown) [Example 124], for which the IC50 was not above 0.1 µM in experiment [1] and 1 to 10 µM in experiment [2].

For `COC(=O)Nc1cc(-c2nccc(-c3cc(NC(=O)NCCC(C)(C)OC)c(F)cc3C)n2)ccn1` [Example 129], the results for the half-inhibitory concentration (IC50) in experiment [1] and in experiment [2] were not above 0.1 µM and 1 to 10 µM, respectively.

In the case of `COC[C@@H]1CCN(C(=O)Nc2cc(-c3cc(-c4ccnc(NC(=O)OC)c4)cnn3)c(C)cc2F)C1` [Example 149], the concentration for half-maximal inhibition (IC50) in experiment [1] was not above 0.1 µM; in experiment [2] it was 1 to 10 µM.

For the compound `COC1(CCNC(=O)Nc2cnc(C)c(-c3ccnc(-c4ccnc(NC(=O)C5CC5)c4)n3)c2)CC1` [Example 137], the IC50 in experiment [1] is not above 0.1 µM; in experiment [2], 1 to 10 µM.

For the compound `COC[C@H]1CCN(C(=O)Nc2cnc(C)c(-c3cc(OCCO)nc(-c4ccnc(NC(=O)OC)c4)c3)c2)C1` [Example 152], the IC50 in experiment [1] is not above 0.1 µM; in experiment [2], 1 to 10 µM.

With `Cc1cc(F)c(NC(=O)NCCC(C)(C)F)cc1-c1ccnc(-c2ccnc(NC(=O)C3CC3)c2)n1` [Example 128], the IC50 was not above 0.1 µM in experiment [1] and 1 to 10 µM in experiment [2].

For `Cc1cc(F)c(NC(=O)NCCC(C)(C)F)cc1-c1cccc(-c2cc(NC(=O)C3CC3)ncn2)c1` [Example 127], the IC50 is not above 0.1 µM in experiment [1] and 1 to 10 µM in experiment [2].

Take `Cc1ncc(NC(=O)NCCC(C)(C)F)cc1-c1ccnc(-c2ccnc(NC(=O)C3CC3)c2)n1` [Example 136]: the 50% inhibitory concentration (IC50) in experiment [1] was not above 0.1 µM; in experiment [2], 1 to 10 µM.

Turning to `COC(=O)Nc1cc(-c2cc(-c3cc(NC(=O)N[C@H]4C[C@](C)(F)C4)cnc3C)cc(OCCO)n2)ccn1` [Example 157], the IC50 was not above 0.1 µM in experiment [1] and 1 to 10 µM in experiment [2].

As to `COC(=O)Nc1cc(-c2cc(-c3cc(NC(=O)NCCC4(C)CC4)cnc3C)cc(OCCO)n2)ccn1` [Example 151], the IC50 was not above 0.1 µM in experiment [1] and 0.1 to 0.5 µM in experiment [2].

As for `Cc1cc(F)c(NC(=O)NC2CC(C)(C)C2)cc1-c1cc(OCCO)nc(-c2ccnc(NC(=O)C3CC3)c2)n1` [Example 167], the half-inhibitory concentration (IC50) in experiment [1] and in experiment [2] was not above 0.1 µM throughout.

Regarding `COC(=O)Nc1cc(-c2cc(-c3cc(NC(=O)NCCN4CCC4)c(F)cc3C)cc(OCCO)n2)ccn1` [Example 125], the IC50 in experiment [1] fell in the range of 0.1 to 0.5 µM; in experiment [2], 1 to 10 µM.

With `COC(=O)Nc1cc(-c2cccc(-c3cc(NC(=O)NCCC4(OC)CC4)cnc3C)c2)ncn1` [Example 138], the IC50 in experiment [1] was not above 0.1 µM; in experiment [2] it was 1 to 10 µM.

For `Cc1cc(F)c(NC(=O)NCCC2(C)CC2)cc1-c1ccnc(-c2ccnc(NC(=O)C3CC3)c2)c1` [Example 134], the 50% inhibitory concentration (IC50) in experiment [1] was not above 0.1 µM; in experiment [2] it was 0.5 to 1 µM.

On to `COC(=O)Nc1cc(-c2cc(-c3cc(NC(=O)NCCC(C)(C)OC)c(F)cc3F)ccn2)ccn1` [Example 163], for which the IC50 is not above 0.1 µM in experiment [1] and 1 to 10 µM in experiment [2].

For the compound `COC(C)(C)CCNC(=O)Nc1cc(-c2ccnc(-c3ccnc(NC(=O)C4CC4)c3)c2)c(F)cc1F` [Example 162], the IC50 in experiment [1] is not above 0.1 µM; in experiment [2], 1 to 10 µM.
